Experimental data: patent US10525017B2, “Composition containing meso-2,3-butanediol” (Amorepacific Corporation, priority 2014, dated 2020)

Assays:
[1] = system: Aspergillus niger (ATCC 16404); experiment: Antibacterial activity test (MIC); assay type: cell-based; conditions: broth culture, 25 to 32° C., 24 to 72 hours; tested 0.01 to 10% (v/v)
Method: (§1) In order to compare the antibacterial activities by the position and stereoscopic orientation of the hydroxyl group of the diol, the antibacterial activities (minimum inhibitory concentration, MIC) against the samples described in Table 1 below, that is, six kinds of diols such as 1,3-butanediol, were measured.
(§2) The antibacterial activity measurement tests were performed using bacteria, yeasts and molds, such as Escherichia coli (ATCC 8739), Pseudomonas aeruginosa (ATCC 9027), Staphylococcus aureus (ATCC 6538), Candida albicans (ATCC 10231), and Aspergillus niger; (ATCC 16404). Respective substances or the like were added to Tryptic Soy broth and Sabouraud Dextrose (SD) broth at a concentration of 0.01 to 10% (v/v), the culture solution was prepared in a liquid phase, and the bacteria, yeasts, and molds were inoculated, and then cultured at 25 to 32° C. for 24 to 72 hours to observe the state of the bacteria.

[2] = system: Escherichia coli (ATCC 8739); experiment: Antibacterial activity test (MIC); assay type: cell-based; conditions: broth culture, 25 to 32° C., 24 to 72 hours; tested 0.01 to 10% (v/v)
Method: as §1, §2

[3] = system: Candida albicans (ATCC 10231); experiment: Antibacterial activity test (MIC); assay type: cell-based; conditions: broth culture, 25 to 32° C., 24 to 72 hours; tested 0.01 to 10% (v/v)
Method: as §1, §2

[4] = system: Staphylococcus aureus (ATCC 6538); experiment: Antibacterial activity test (MIC); assay type: cell-based; conditions: broth culture, 25 to 32° C., 24 to 72 hours; tested 0.01 to 10% (v/v)
Method: as §1, §2

[5] = system: Pseudomonas aeruginosa (ATCC 9027); experiment: Antibacterial activity test (MIC); assay type: cell-based; conditions: broth culture, 25 to 32° C., 24 to 72 hours; tested 0.01 to 10% (v/v)
Method: as §1, §2

[6] = Skin irritation test, 24 h patch test; assay type: in vivo, human
Method: In order to evaluate the skin safety of a human body on 1,3-butanediol, 1,2-butanediol and 1,2-hexanediol (conventionally used diol), which are similar to meso-2,3-butanediol, S,S-2,3-butanediol and R,R-2,3-butanediol that are stereoisomers of 2,3-butanediol except that the position of a hydroxy group is different, the patch test was carried out for 24 hours. The patch was attached to the upper part of the subject's back, and 20 μl of the prepared test substance was applied to the patch using an IQ chamber (chemotechique, Sweeden). The patch was attached and after the lapse of 24 hours, the patch was removed. After removal of the patch, the first reading was performed after 30 minutes, and the second reading was performed after 24 hours.
In order to investigate the intensity of the skin irritation of the samples, weighting values were given according to the degree of positive reaction of the skin, skin average reactivity was determined, and the skin irritation of the sample was judged. The skin average reactivity was calculated using the mathematical formula 1 below, and the determination criteria are as shown in Table 5 below.

[7] = Content 30%, 20 μl, 24 h patch on back, less than 1 = no irritation, 1-3 mild, 3-5 moderate

Compound	minimum inhibitory concentration, MIC, A. niger [1]	minimum inhibitory concentration, MIC, E. coli [2]	minimum inhibitory concentration, MIC, C. albicans [3]	minimum inhibitory concentration, MIC, S. aureus [4]	minimum inhibitory concentration, MIC, P. aeruginosa [5]	Skin irritation Score (skin average reactivity) ([6]; human, in vivo, 24 h, 20 %)	Skin irritation Score (skin average reactivity) ([6]; human, in vivo, 24 h, 30 %)	numerical value of skin irritation, in words ([6]; in vivo)	Skin irritation Score (skin average reactivity) [6, 7]
CCCCC(O)CO (stereo not shown) [1,2-hexanediol]	0.625 % (v/v)	1.25 % (v/v)	1.25 % (v/v)	2.5 % (v/v)	1.25 % (v/v)	2.54	–	–	–
CCC(O)CO (stereo not shown) [1,2-butanediol]	2.5 % (v/v)	5 % (v/v)	5 % (v/v)	1.25 % (v/v)	2.5 % (v/v)	–	–	–	2.48
CC(O)CCO (stereo not shown) [1,3-butanediol]	>10 % (v/v)	>10 % (v/v)	>10 % (v/v)	>10 % (v/v)	>10 % (v/v)	–	–	–	0.52

Continued, in another order:

minimum inhibitory concentration, MIC, A. niger [1]	minimum inhibitory concentration, MIC, E. coli [2]	minimum inhibitory concentration, MIC, C. albicans [3]	minimum inhibitory concentration, MIC, S. aureus [4]	minimum inhibitory concentration, MIC, P. aeruginosa [5]	Compound	Skin irritation Score (skin average reactivity) ([6]; human, in vivo, 24 h, 20 %)	Skin irritation Score (skin average reactivity) ([6]; human, in vivo, 24 h, 30 %)	numerical value of skin irritation, in words ([6]; in vivo)	Skin irritation Score (skin average reactivity) [6, 7]
1.25 % (v/v)	1.25 % (v/v)	2.5 % (v/v)	5 % (v/v)	2.5 % (v/v)	C[C@H](O)[C@@H](C)O [Meso-2,3-butanediol, meso-2,3-butanediol]	–	0.41	lower	–
5 % (v/v)	2.5 % (v/v)	5 % (v/v)	10 % (v/v)	5 % (v/v)	C[C@@H](O)[C@@H](C)O [R,R-2,3-butanediol]	–	1.45	–	–
1.25 % (v/v)	5 % (v/v)	5 % (v/v)	2.5 % (v/v)	5 % (v/v)	C[C@H](O)[C@H](C)O [S,S-2,3-butanediol]	–	2.12	–	–
